The values below come from US5824699A, “Carbazole inhibitors of Cox-2” (American Home Products Corporation, priority 1998, dated 1998).

The conditions of data set [1]: Humber et al., J. Med. Chem. 31, 1712-1719 (1988); cited from earlier work.
The test system of another data set is prostaglandin synthesis. The following applies: Humber et al., J. Med. Chem. 31, 1712-1719 (1988); U.S. Pat. No. 4,686,213; cited from earlier work.
The target in a further data set is T1, human COX-2 (rhCOX-2) (Homo sapiens, UniProt P35354).
T1 construct: made in house; host or cells: Sf9 or CHO cells (microsomal preparation)
T1 sequence (P35354 18-604): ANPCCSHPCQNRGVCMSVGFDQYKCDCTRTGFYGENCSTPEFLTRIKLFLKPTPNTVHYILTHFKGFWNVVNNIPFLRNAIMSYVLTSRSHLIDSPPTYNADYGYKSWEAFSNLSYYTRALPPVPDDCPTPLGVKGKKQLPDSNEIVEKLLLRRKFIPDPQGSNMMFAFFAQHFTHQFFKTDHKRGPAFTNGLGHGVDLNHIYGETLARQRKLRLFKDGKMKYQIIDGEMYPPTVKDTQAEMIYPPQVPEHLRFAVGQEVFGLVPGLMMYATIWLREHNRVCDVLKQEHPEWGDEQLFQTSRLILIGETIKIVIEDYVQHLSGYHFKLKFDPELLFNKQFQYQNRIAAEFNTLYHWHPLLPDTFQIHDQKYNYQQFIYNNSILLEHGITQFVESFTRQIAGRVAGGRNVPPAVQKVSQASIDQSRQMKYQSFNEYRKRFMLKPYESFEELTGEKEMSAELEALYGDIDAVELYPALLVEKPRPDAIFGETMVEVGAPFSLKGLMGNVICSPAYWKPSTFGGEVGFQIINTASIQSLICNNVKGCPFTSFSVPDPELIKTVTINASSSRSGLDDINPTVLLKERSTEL
In words: inhibition of microsomal human recombinant COX-2 (PGH2 converted to PGF2a, quantified by EIA). It counts as biochemical. The following applies: for IC50: rhCOX-2, value in parentheses = IC50, 30 μM arachidonic acid, read-out: % Inhib of rhCOX-2 (IC50); for inhibition at 3 µM: rhCOX-2, at 3 μM; for inhibition at 1 µM: rhCOX-2, at 1 μM; for inhibition at 3.3 µM: rhCOX-2, at 3.3 μM (* sodium salt for Example 19). As for the experimental part: (§1) The microsomal human recombinant enzymes were diluted with buffer (100 mM Tris, pH 7.8 at 37° C.) containing 0.5 mM phenol (964 μl total volume). The enzyme preparations were preincubated with vehicle (DMSO) or compounds in DMSO (1% DMSO in final assay) for 30 min at […]
(§2) The reaction was incubated for 35 s (maximum level of PGH2 accumulation as determined from time course studies), and terminated by addition of 50-60 μL of SnCl2 (1 mg/ml) in 0.1N HCl. PGH2 is quantitatively converted to PGF2a by this reaction ([…] of total conversion). The pH of each tube is adjusted to pH 3.0-3.5 with 1N NaOH and extracted twice with 1.5 ml of ethyl acetate (75-90% efficiency per extraction). Combined ethyl acetate layers were dried under N2 (g) and redissolved in EIA buffer (2.0 ml), and PGF2a was quantified by EIA.

The next data set concerns the target T2, human COX-1 (rhCOX-1) (Homo sapiens, UniProt P23219).
T2 construct: made in house; host or cells: Sf9 or CHO cells (microsomal preparation)
In words: inhibition of microsomal human recombinant COX-1 (PGH2 converted to PGF2a, quantified by EIA). Type of data set: biochemical. As to the method:
as §1, §2

The test system of a further data set is COX-2. To be noted: Glaser et al., Eur. J. Pharmacol. 281, 107-111 (1995); cited from earlier work.
For data set [2] the following is noted: cited from earlier work.
The conditions of data set [3]: Rogers et al., Neurology 43, 1609-1611 (1993); cited from earlier work.
Where [4] appears, read: Table 1, rhCOX-1, at 90 μM, read-out: % Inhibition of rhCOX-1.
Where [5] appears, read: Table 1, read-out: % Inhib of rhCOX-2.
Where [6] appears, read: Table 2, read-out: % Inhib of rhCOX-2.
The mark [7] stands for this setting: Table 2, rhCOX-1, at 90 μM, read-out: % Inhibn of rhCOX-1.
Setting [8] is: Table 3, read-out: Inhib rhCOX-2.
Setting [9] is: Table 3, rhCOX-1, at 90 μM (* sodium salt for Example 19), read-out: % Inhib rhCOX-1.

Structures can show the parent of a compound that is named as a salt. Where two headings read alike, the source gives them in different places.

T2 sequence (P23219 24-599): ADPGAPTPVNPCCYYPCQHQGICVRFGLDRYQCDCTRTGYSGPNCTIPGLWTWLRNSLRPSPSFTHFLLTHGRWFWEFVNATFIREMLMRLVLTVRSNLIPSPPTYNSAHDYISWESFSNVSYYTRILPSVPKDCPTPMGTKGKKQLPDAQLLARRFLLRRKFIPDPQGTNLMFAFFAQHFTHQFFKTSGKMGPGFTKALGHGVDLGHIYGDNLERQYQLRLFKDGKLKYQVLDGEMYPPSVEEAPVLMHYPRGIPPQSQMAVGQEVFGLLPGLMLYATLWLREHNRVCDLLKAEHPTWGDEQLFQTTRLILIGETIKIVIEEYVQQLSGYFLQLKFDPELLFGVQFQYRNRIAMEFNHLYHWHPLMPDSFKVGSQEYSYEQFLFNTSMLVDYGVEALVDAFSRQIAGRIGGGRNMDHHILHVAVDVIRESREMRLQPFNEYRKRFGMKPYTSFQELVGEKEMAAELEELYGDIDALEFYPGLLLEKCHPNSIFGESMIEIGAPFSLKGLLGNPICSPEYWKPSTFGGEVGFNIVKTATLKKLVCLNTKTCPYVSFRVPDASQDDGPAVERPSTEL

As for `CCc1cccc2c3c([nH]c12)C(CC)(CC(=O)O)OCC3=O` (stereo not shown) [4-oxo metabolite], the “oral in vivo antiinflammatory activity” value in data set [1] is on record as “had oral in vivo antiinflammatory activity”. For the same compound, in the data set with prostaglandin synthesis, the “activity in blocking prostaglandin synthesis” value is “active in blocking prostaglandin synthesis”.

Broadly, the IC50 is the point on the concentration scale where inhibition reaches its midpoint. As to `CCC1(CC(=O)O)OCC(=O)c2c1[nH]c1ccccc21` (stereo not shown) [Example 1, (1-Ethyl-4-oxo-1,3,4,9-tetrahydro-pyrano[3,4-b]indol-1-yl)-acetic acid], on human COX-2 (rhCOX-2) (Table 1), the IC50 came to 2.1 µM. Besides, at human COX-1 (rhCOX-1) (setting [4]), the inhibition at 90 µM amounted to 43%.

Take `CCCC1(CC(=O)O)OCC(=O)c2c1[nH]c1ccccc21` (stereo not shown) [Example 2, (1-Propyl-4-oxo-1,3,4,9-tetrahydro-pyrano[3,4-b]indol-1-yl)-acetic acid]: at human COX-2 (rhCOX-2) (Table 1), the IC50 is 3.2 µM. Moreover, the inhibition at 90 µM on human COX-1 (rhCOX-1) (setting [4]) came to 44%.

`COCC1(CC(=O)O)OCC(=O)c2c1[nH]c1ccccc21` (stereo not shown) [Example 3, (1-Methoxymethyl-4-oxo-1,3,4,9-tetrahydro-pyrano[3,4-b]indol-1-yl)-acetic acid]: the inhibition at 3 µM at human COX-2 (rhCOX-2) (setting [5]) was 8%.

Consider `CCc1cccc2c3c([nH]c12)C(CC)(CC(=O)O)OCC3=O` (stereo not shown) [Example 4, 1,8-Diethyl-4-oxo-1,3,4,9-tetrahydro-pyrano-[3,4-b]indole-1-acetic acid], for which the IC50 was 1.9 µM on human COX-2 (rhCOX-2) (Table 1) and greater than 270 µM on human COX-1 (rhCOX-1) (Table 1, rhCOX-1, read-out: % Inhibition of rhCOX-1 (value in parentheses, IC50)).

On to `CCC1(CC(=O)O)OCC(=O)c2c1[nH]c1cccc(Cl)c21` (stereo not shown) [Example 5, (5-Chloro-1-ethyl-4-oxo-1,3,4,9-tetrahydro-pyrano[3,4-b]indol-1-yl)-aceticacid], for which the IC50 on human COX-2 (rhCOX-2) (Table 1) was 1.2 µM.

`CCC1(CC(=O)O)OCC(=O)c2c1[nH]c1cccc(Br)c21` (stereo not shown) [Example 6, (5-Bromo-1-ethyl-4-oxo-1,3,4,9-tetrahydro-pyrano[3,4-b]indol-1-yl)-acetic acid]: on human COX-2 (rhCOX-2) (Table 1), the IC50 is 1.1 µM.

As to `CCC1(CC(=O)O)OCC(=O)c2c1[nH]c1cccc(C#N)c21` (stereo not shown) [Example 7, 5-Cyano-1-ethyl-4-oxo-1,3,4,9-tetrahydropyrano[3,4-b]indole-1-acetic acid], the inhibition at 1 µM on human COX-2 (rhCOX-2) (setting [5]) was 7%.

For `C=CCc1c(F)ccc2c3c([nH]c12)C(CC)(CC(=O)O)OCC3=O` (stereo not shown) [Example 8, 8-Allyl-1-ethyl-7-fluoro-4-oxo-1,3,4,9-tetrahydropyrano[3,4-b]indole-1-acetic acid], the IC50 on human COX-2 (rhCOX-2) (Table 1) came out at 0.37 µM. In addition, the inhibition at 3 µM on human COX-1 (rhCOX-1) (Table 1, rhCOX-1, at 3 μM) was determined as 78%.

Take `CCC1(CC(=O)O)CCC(=O)c2c1[nH]c1ccccc21` (stereo not shown) [Example 9, [1-Ethyl-4oxo-2,3,4,9-tetrahydro-1H-(carbazol-1-yl)]-acetic acid]: the inhibition at 3 µM at human COX-2 (rhCOX-2) (setting [6]) came out at 26%.

`CCc1cccc2c3c([nH]c12)C(CC)(CC(=O)O)CCC3=O` (stereo not shown) [Example 10, [1,8-Diethyl-4-oxo-2,3,4,9-tetrahydro-1H-(carbazol-1-yl)]-acetic acid]: the IC50 at human COX-2 (rhCOX-2) (Table 2) was 2 µM. The inhibition at 90 µM at human COX-1 (rhCOX-1) (setting [7]) came out at 26%.

On to `CCC1(CC(=O)O)CCC(=O)c2c1[nH]c1c(C(C)C)cccc21` (stereo not shown) [Example 11, [1-Ethyl-8-isopropyl-4-oxo-2,3,4,9-tetrahydro-1H-(carbazol-1-yl)]-acetic acid], for which the inhibition at 3 µM on human COX-2 (rhCOX-2) (setting [6]) worked out at 40%. In addition, the inhibition at 90 µM at human COX-1 (rhCOX-1) (setting [7]) is 85%.

Turning to `CCC1(CC(=O)O)CCC(=O)c2c1[nH]c1cccc(Cl)c21` (stereo not shown) [Example 12, [1-Ethyl-5-chloro-4-oxo-2,3,4,9-tetrahydro-1H-(carbazol-1-yl)]-acetic acid], at human COX-2 (rhCOX-2) (setting [6]), the inhibition at 1 µM was 12%. Further, on human COX-1 (rhCOX-1) (Table 2, rhCOX-1, at 30 μM, read-out: % Inhibn of rhCOX-1), the inhibition at 30 µM was 5%.

In the case of `CCC1(CC(=O)O)CCC(=O)c2c1[nH]c1c(F)ccc(F)c21` (stereo not shown) [Example 13, (1-Ethyl-5,8-difluoro-4-oxo-2,3,4,9-tetrahydro-1H-(carbazol-1-yl))-acetic acid], the inhibition at 1 µM on human COX-2 (rhCOX-2) (setting [6]) is 25%.

Consider `CCC1(CC(=O)O)CCC(=O)c2c1[nH]c1c(F)c(F)ccc21` (stereo not shown) [Example 14, (7.8-Difluoro-1-ethyl-4-oxo-2,3,4,9-tetrahydro-1H-(carbazol-1-yl))-acetic acid], for which the IC50 at human COX-2 (rhCOX-2) (Table 2) is 0.7 µM. In addition, the inhibition at 23 µM at human COX-1 (rhCOX-1) (Table 2, rhCOX-1, at 23 μM, read-out: % Inhibn of rhCOX-1) amounted to 50%.

Turning to `C=CCC1(CC(=O)O)CCC(=O)c2c1[nH]c1c(F)ccc(F)c21` (stereo not shown) [Example 15, (1-Allyl-5,8-difluoro-4-oxo-2,3,4,9-tetrahydro-1H-(carbazol-1-yl))-acetic acid], at human COX-2 (rhCOX-2) (setting [6]), the inhibition at 1 µM came out at 30%.

For the compound `CCCC1(CC(=O)O)CCC(=O)c2c1[nH]c1c(F)ccc(F)c21` (stereo not shown) [Example 16, (5,8-Difluoro-4-oxo-1-propyl-2,3,4,9-tetrahydro-1H-(carbazol-1-yl))-aceticacid], on human COX-2 (rhCOX-2) (setting [6]), the inhibition at 1 µM came to 29%.

`CCCC1(CC(=O)O)CCC(=O)c2c1[nH]c1cc(F)cc(F)c21` (stereo not shown) [Example 17, (5,7-Difluoro-1-propyl-4-oxo-2,3,4,9-tetrahydro-1H-(carbazol-1-yl))-aceticacid]: the inhibition at 1 µM on human COX-2 (rhCOX-2) (setting [6]) was found to be 13%.

Take `CCc1cccc2c3c([nH]c12)C(CC)(CC(=O)O)OCC3=NO` (stereo not shown) [Example 18, [1,8-Diethyl-4-hydroxyimino-1,3,4,9-tetrahydro-pyrano[3.4-b]indol-1-yl]-ace tic acid]: the inhibition at 3.3 µM at human COX-2 (rhCOX-2) (setting [8]) amounted to 50%. Further, the inhibition at 90 µM at human COX-1 (rhCOX-1) (setting [9]) worked out at 96%.

As to `CCc1cccc2c3c([nH]c12)C(CC)(CC(=O)O)OCC3=NNS(C)(=O)=O` (stereo not shown) [Example 19, [1,8-Diethyl-4-(methanesulfonyl-hydrazono)-1,3,4,9-tetrahydro-pyrano [3,4-b]indol-1-yl]-acetic acid sodium salt], at human COX-2 (rhCOX-2) (setting [8]), the inhibition at 3.3 µM came to 50%. Also, at human COX-1 (rhCOX-1) (setting [9]), the inhibition at 90 µM is 96%.

In the case of `CCc1cccc2c3c([nH]c12)C(CC)(CC(=O)O)CCC3=NO` (stereo not shown) [Example 20, (1,8-Diethyl-4-hydroxyimino-2,3,4,9-tetrahydro-1H-carbazol-1-yl)-acetic acid], the inhibition at 1 µM at human COX-2 (rhCOX-2) (setting [8]) came out at 18%.

Take `CCc1cccc2c3c([nH]c12)C(CC)(CC(=O)O)OCC3` (stereo not shown) [etodolac]: in the data set with COX-2, the “selectivity for inhibition of COX-2” value is listed as “tenfold”. Further, in data set [2] (in vivo), the G.I. safety result is recorded as “improved G.I. safety”.

Take `COc1ccc2c(c1)c(CC(=O)O)c(C)n2C(=O)c1ccc(Cl)cc1` [indomethacin]: the “selectivity for inhibition of COX-2” value in the data set on COX-2 is listed as “relatively non-selective inhibitor of COX-2”. In addition, in data set [2] (literature), the G.I. safety entry is given as “adverse G.I. side effects”. Besides, in data set [3], the “usefulness in the treatment of Alzheimer's disease” value is reported as “useful in the treatment of Alzheimer's disease”.
